The target in the assay is CcpA (Streptococcus pneumoniae, UniProt A0A0H2ZQ65). To be noted: 10 mM; room temperature; raises DNA affinity; direct binding of formate not shown.

Counter-ions that a name gives are not always drawn.

Chain of CcpA (A0A0H2ZQ65 entry or part of it): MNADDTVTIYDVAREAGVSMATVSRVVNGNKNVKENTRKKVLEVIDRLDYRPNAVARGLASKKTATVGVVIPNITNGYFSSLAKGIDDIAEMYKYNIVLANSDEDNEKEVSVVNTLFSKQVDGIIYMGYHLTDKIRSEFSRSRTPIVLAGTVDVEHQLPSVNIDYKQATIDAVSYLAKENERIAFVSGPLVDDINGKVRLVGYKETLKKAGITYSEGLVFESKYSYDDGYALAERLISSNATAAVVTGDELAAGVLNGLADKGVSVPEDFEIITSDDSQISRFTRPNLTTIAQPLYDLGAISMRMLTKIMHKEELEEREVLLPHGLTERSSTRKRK

`O=CO` [sodium formate]: the “EMSA with pflB promoter DNA, protein preincubated with compound” value was “formate enhanced the binding of CcpA to PpflB”.

The values above are taken from PMC5327383, “Pneumococcal galactose catabolism is controlled by multiple regulators acting on pyruvate formate lyase” (Scientific Reports, 2017).
